From ChEMBL document CHEMBL1157738, “Simocyclinone D8 turns on against Gram-negative bacteria in a clinical setting” (2010)
≈ marks a conversion by molar mass, not a printed value.

Tests used:
[1] = system: Klebsiella pneumoniae; experiment: Antibacterial activity against Klebsiella pneumoniae isolate 204 expressing qnr B19 gene after 24 hrs by twofold serial dilution method; format: functional
[2] = system: Klebsiella pneumoniae; experiment: Antibacterial activity against Klebsiella pneumoniae isolate 172 expressing qnr B19 gene, GyrA D87G mutant assessed as residual bacterial survival at 50 mg/L after 24 hrs by twofold serial dilution method; format: functional; details: isolate 172, 24 h
[3] = system: Klebsiella pneumoniae; experiment: Antibacterial activity against Klebsiella pneumoniae isolate 92 assessed as drug uptake relative to total amount drug treated; format: functional, organism-based
[4] = system: Escherichia coli; experiment: Antibacterial activity against Escherichia coli isolate 24 after 24 hrs by twofold serial dilution method; format: functional
[5] = system: Escherichia coli; experiment: Antibacterial activity against Escherichia coli isolate 7 after 24 hrs by twofold serial dilution method; format: functional
[6] = system: Escherichia coli; experiment: Antibacterial activity against Escherichia coli isolate 50 expressing qnr B19 gene assessed as residual bacterial survival at 50 mg/L after 24 hrs by twofold serial dilution method; format: functional; details: isolate 50, 24 h
[7] = system: Escherichia coli; experiment: Antibacterial activity against Escherichia coli isolate 95 expressing GyrA S83L mutant assessed as residual bacterial survival at 50 mg/L after 24 hrs by twofold serial dilution method; format: functional; details: isolate 95, 24 h
[8] = system: Klebsiella pneumoniae; experiment: Antibacterial activity against Klebsiella pneumoniae isolate 97 expressing qnr B19 gene after 24 hrs by twofold serial dilution method; format: functional
[9] = system: Klebsiella pneumoniae; experiment: Antibacterial activity against Klebsiella pneumoniae isolate 92 after 24 hrs by twofold serial dilution method; format: functional
[10] = system: Escherichia coli; experiment: Antibacterial activity against Escherichia coli isolate 32 assessed as residual bacterial survival at 50 mg/L after 24 hrs by twofold serial dilution method; format: functional; details: isolate 32, 24 h
[11] = system: Escherichia coli; experiment: Antibacterial activity against Escherichia coli JM109 after 24 hrs by twofold serial dilution method; format: functional
[12] = system: Escherichia coli; experiment: Antibacterial activity against Escherichia coli isolate 32 after 24 hrs by twofold serial dilution method; format: functional
[13] = system: Escherichia coli; experiment: Antibacterial activity against Escherichia coli isolate 50 expressing qnr B19 gene after 24 hrs by twofold serial dilution method; format: functional
[14] = system: Escherichia coli; experiment: Antibacterial activity against Escherichia coli HB101 after 24 hrs by twofold serial dilution method; format: functional
[15] = system: Escherichia coli; experiment: Antibacterial activity against Escherichia coli XL-1Blue after 24 hrs by twofold serial dilution method; format: functional
[16] = system: Escherichia coli; experiment: Antibacterial activity against Escherichia coli isolate 115 expressing GyrA S83L mutant assessed as residual bacterial survival at 50 mg/L after 24 hrs by twofold serial dilution method; format: functional; details: isolate 115, 24 h
[17] = system: Escherichia coli; experiment: Antibacterial activity against Escherichia coli isolate 41 after 24 hrs by twofold serial dilution method; format: functional
[18] = system: Escherichia coli; experiment: Antibacterial activity against Escherichia coli Top10 assessed as residual bacterial survival at 50 mg/L after 24 hrs by twofold serial dilution method; format: functional; details: Top10, 24 h
[19] = system: Escherichia coli; experiment: Antibacterial activity against Escherichia coli Top10 assessed as drug uptake relative to total amount drug treated; format: functional, organism-based
[20] = system: Escherichia coli; experiment: Antibacterial activity against Escherichia coli isolate 24 assessed as residual bacterial survival at 50 mg/L after 24 hrs by twofold serial dilution method; format: functional; details: isolate 24, 24 h
[21] = system: Escherichia coli; experiment: Antibacterial activity against Escherichia coli isolate 50 assessed as drug uptake; format: functional, organism-based
[22] = system: Klebsiella pneumoniae; experiment: Antibacterial activity against Klebsiella pneumoniae isolate 91 assessed as residual bacterial survival at 50 mg/L after 24 hrs by twofold serial dilution method; format: functional; details: isolate 91, 24 h
[23] = system: Klebsiella pneumoniae; experiment: Antibacterial activity against Klebsiella pneumoniae isolate 173 after 24 hrs by twofold serial dilution method; format: functional
[24] = system: Escherichia coli; experiment: Antibacterial activity against Escherichia coli isolate 191 expressing qnr S1 gene after 24 hrs by twofold serial dilution method; format: functional
[25] = system: Klebsiella pneumoniae; experiment: Antibacterial activity against Klebsiella pneumoniae isolate 97 expressing qnr B19 gene assessed as residual bacterial survival at 50 mg/L after 24 hrs by twofold serial dilution method; format: functional; details: isolate 97, 24 h
[26] = system: Klebsiella pneumoniae; experiment: Antibacterial activity against Klebsiella pneumoniae isolate 16 expressing qnr B19 gene, GyrA D87G mutant assessed as residual bacterial survival at 50 mg/L after 24 hrs by twofold serial dilution method; format: functional; details: isolate 16, 24 h
[27] = system: Klebsiella pneumoniae; experiment: Antibacterial activity against Klebsiella pneumoniae isolate 5 expressing qnr B19 gene, GyrA D87G mutant assessed as residual bacterial survival at 50 mg/L after 24 hrs by twofold serial dilution method; format: functional; details: isolate 5, 24 h
[28] = system: Klebsiella pneumoniae; experiment: Antibacterial activity against Klebsiella pneumoniae isolate 134 after 24 hrs by twofold serial dilution method; format: functional
[29] = system: Escherichia coli; experiment: Antibacterial activity against Escherichia coli JM110 after 24 hrs by twofold serial dilution method; format: functional
[30] = system: Klebsiella pneumoniae; experiment: Antibacterial activity against Klebsiella pneumoniae isolate 134 assessed as residual bacterial survival at 50 mg/L after 24 hrs by twofold serial dilution method; format: functional; details: isolate 134, 24 h
[31] = system: Klebsiella pneumoniae; experiment: Antibacterial activity against Klebsiella pneumoniae isolate 97 assessed as drug uptake relative to total amount drug treated; format: functional, organism-based
[32] = system: Escherichia coli; experiment: Antibacterial activity against Escherichia coli isolate 24 assessed as drug uptake relative to total amount drug treated; format: functional, organism-based
[33] = system: Escherichia coli; experiment: Antibacterial activity against Escherichia coli Top10 assessed as drug uptake; format: functional, organism-based
[34] = system: Klebsiella pneumoniae; experiment: Antibacterial activity against Klebsiella pneumoniae isolate 328 expressing qnr B19 gene, GyrA D87G mutant assessed as residual bacterial survival at 50 mg/L after 24 hrs by twofold serial dilution method; format: functional; details: isolate 328, 24 h
[35] = system: Escherichia coli; experiment: Antibacterial activity against Escherichia coli isolate 24 assessed as drug uptake; format: functional, organism-based
[36] = system: Escherichia coli; experiment: Antibacterial activity against Escherichia coli isolate 7 assessed as residual bacterial survival at 50 mg/L after 24 hrs by twofold serial dilution method; format: functional; details: isolate 7, 24 h
[37] = system: Klebsiella pneumoniae; experiment: Antibacterial activity against Klebsiella pneumoniae isolate 110 expressing qnr B19 gene, GyrA D87G mutant assessed as residual bacterial survival at 50 mg/L after 24 hrs by twofold serial dilution method; format: functional; details: isolate 110, 24 h
[38] = system: Escherichia coli; experiment: Antibacterial activity against Escherichia coli isolate 13 after 24 hrs by twofold serial dilution method; format: functional
[39] = system: Escherichia coli; experiment: Antibacterial activity against Escherichia coli isolate 50 assessed as drug uptake relative to total amount drug treated; format: functional, organism-based
[40] = system: Escherichia coli; experiment: Antibacterial activity against Escherichia coli isolate 9 expressing qnr B19 gene, GyrA D87G mutant assessed as residual bacterial survival at 50 mg/L after 24 hrs by twofold serial dilution method; format: functional; details: isolate 9, 24 h
[41] = system: Klebsiella pneumoniae; experiment: Antimicrobial activity against Klebsiella pneumoniae isolate 97 assessed drug uptake; format: functional, organism-based
[42] = system: Staphylococcus aureus; experiment: Antibacterial activity against Staphylococcus aureus after 24 hrs by twofold serial dilution method; format: functional
[43] = system: Escherichia coli; experiment: Antibacterial activity against Escherichia coli isolate 13 assessed as residual bacterial survival at 50 mg/L after 24 hrs by twofold serial dilution method; format: functional; details: isolate 13, 24 h
[44] = system: Escherichia coli; experiment: Antibacterial activity against Escherichia coli Top10 after 24 hrs by twofold serial dilution method; format: functional
[45] = system: Escherichia coli; experiment: Antibacterial activity against Escherichia coli isolate 21 assessed as residual bacterial survival at 50 mg/L after 24 hrs by twofold serial dilution method; format: functional; details: isolate 21, 24 h
[46] = system: Escherichia coli; experiment: Antibacterial activity against Escherichia coli isolate 191 expressing qnr S1 gene assessed as residual bacterial survival at 50 mg/L after 24 hrs by twofold serial dilution method; format: functional; details: isolate 191, 24 h
[47] = system: Staphylococcus aureus; experiment: Antibacterial activity against Staphylococcus aureus assessed as residual bacterial survival at 50 mg/L after 24 hrs by twofold serial dilution method; format: functional

`CC(=O)O[C@@H]1[C@@H](C)O[C@@H](c2ccc3c(c2O)[C@@H](O)[C@]24O[C@@]2(C3=O)[C@@]2(O)C(=O)C=C(C)C[C@@]2(O)C[C@@H]4O)C[C@H]1OC(=O)/C=C/C=C/C=C/C=C/C(=O)Nc1c(O)c2ccc(O)c(Cl)c2oc1=O` [SIMOCYCLINONE D8] showed an MIC50 [1] greater than 100%, a survival at 50 µg/mL [2] greater than 90% and a Drug uptake [3] of 1.96%. It also gave an MIC50 [4] of 3.12 µg/mL (≈ 3.35 µM), an MIC50 [5] greater than 100% and a survival at 50 µg/mL [6] of 41%. For the same compound, the survival at 50 µg/mL [7] was greater than 90%, the MIC50 [8] was 50 µg/mL (≈ 53.6 µM) and the MIC50 [9] was 50 µg/mL (≈ 53.6 µM). It also gave a survival at 50 µg/mL [10] greater than 90%, an MIC50 [11] greater than 100 µg/mL and an MIC50 [12] greater than 100 µg/mL. The MIC50 [13] was 12 µg/mL (≈ 12.9 µM), the MIC50 [14] was greater than 100 µg/mL and the MIC50 [15] was greater than 100 µg/mL. It also gave a survival at 50 µg/mL [16] greater than 90%, an MIC50 [17] of 0.78 µg/mL (≈ 0.837 µM) and a survival at 50 µg/mL [18] greater than 90%. For the same compound, the Drug uptake [19] was 2.61%, the survival at 50 µg/mL [20] was 21% and the Drug uptake [21] was 180 pmol. It also gave a survival at 50 µg/mL [22] greater than 90%, an MIC50 [23] of 100 µg/mL (≈ 107 µM) and an MIC50 [24] of 25 µg/mL (≈ 26.8 µM). For the same compound, the survival at 50 µg/mL [25] was 68%, the survival at 50 µg/mL [26] was greater than 90% and the survival at 50 µg/mL [27] was greater than 90%. For the same compound, the MIC50 [28] was 25 µg/mL (≈ 26.8 µM), the MIC50 [29] was greater than 100 µg/mL and the survival at 50 µg/mL [30] was 51%. For the same compound, the Drug uptake [31] was 1.3%, the Drug uptake [32] was 7.53% and the Drug uptake [33] was 80 pmol. For the same compound, the survival at 50 µg/mL [34] was greater than 90%, the Drug uptake [35] was 260 pmol and the survival at 50 µg/mL [36] was greater than 90%. It also gave a survival at 50 µg/mL [37] greater than 90%, an MIC50 [38] greater than 100 µg/mL and a Drug uptake [39] of 5.87%. The survival at 50 µg/mL [40] was greater than 90%, the Drug uptake [41] was 40 pmol and the MIC50 [42] was 50 µg/mL (≈ 53.6 µM). It also gave a survival at 50 µg/mL [43] greater than 90%, an MIC50 [44] greater than 100 µg/mL and a survival at 50 µg/mL [45] greater than 90%. It also gave a survival at 50 µg/mL [46] of 56% and a survival at 50 µg/mL [47] of 66%.
